# Results: PMC4277420, “Assessment of [^125I]WYE-230949 as a Novel Histamine H3 Receptor Radiopharmaceutical” (PLoS ONE, 2014)
# How the values were obtained:
# [1] = Partition and distribution co-efficients (logP and logD), shake-flask method; assay type: physicochemical
# Description: The lipophilicity of [^125I]WYE-230949 was determined in octanol/water and at physiological pH using a modification of the shake-flask method. […] The radioactivity incorporated in both phases was determined using a gamma counter (Cobra Gamma Counter, Packard, Perkin Elmer Life and Analytical Sciences, Boston, MA, USA). The assay was performed in triplicate on 3 separate occasions. LogP was calculated to be log [counts in octanol/counts in water] and logD was calculated to be log [counts in octanol/counts in pH 7.4 buffer].
# histamine H3 receptor = molecular target: T1, histamine H3 receptor (Rattus norvegicus, UniProt Q9QYN8); assay: Ex vivo autoradiography (target to cerebellum ratios); assay type: in vivo
# T1 construct: Sections (20 µm) cut from a frozen rat brain were pre-incubated in Tris-HCl buffer; from tissue
# T1 sequence (Q9QYN8 whole entry): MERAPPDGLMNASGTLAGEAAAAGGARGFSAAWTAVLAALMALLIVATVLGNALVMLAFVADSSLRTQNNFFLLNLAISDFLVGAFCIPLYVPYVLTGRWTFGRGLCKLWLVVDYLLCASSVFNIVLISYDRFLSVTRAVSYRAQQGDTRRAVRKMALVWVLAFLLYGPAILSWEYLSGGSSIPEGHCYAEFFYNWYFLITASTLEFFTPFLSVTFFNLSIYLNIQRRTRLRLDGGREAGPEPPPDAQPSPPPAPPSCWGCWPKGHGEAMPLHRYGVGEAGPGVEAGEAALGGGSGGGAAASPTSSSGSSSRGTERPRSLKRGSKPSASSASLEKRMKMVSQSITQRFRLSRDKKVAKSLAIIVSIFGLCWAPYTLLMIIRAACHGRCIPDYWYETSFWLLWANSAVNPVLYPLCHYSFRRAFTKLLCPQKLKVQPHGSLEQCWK
# Description: (§1) Animal experiments were conducted under the UK Animals (Scientific Procedures) Act 1986. This work was approved by the ethical review committee at the University of Glasgow (PPL: 60/3436) prior to the start of study. Naïve male Sprague-Dawley rats (Harlan, UK), weighing 217 to 352 g were either conscious or anaesthetised (2.5–3% isoflurane via a tracheostomy and artificial ventilation in 70/30% N2O/O2) for the duration of the experiment. Anaesthetised rats had their respiration and temperature monitored throughout. [^125I]WYE-230949 was administered via a femoral vein cannula to anaesthetised rats or via the lateral tail vein to conscious rats. The injected dose for each rat was calculated by measuring the syringe in a dose calibrator before and after [^125I]WYE-230949 administration. The radioactive and radiochemical amounts administered to individual rats ranged from 12.6 to 24.5 MBq and 0.32 to 0.70 µg/kg respectively in all in vivo studies.
# Regional brain uptake was determined by ex vivo autoradiography, studies were performed in both conscious and anaesthetised rats in order to investigate the effect of anaesthesia on [^125I]WYE-230949 uptake. At either 30 or 120 min following [^125I]WYE-230949 administration rats were killed by cervical dislocation. The brains were removed, frozen in isopentane at −42°C and stored at −20°C before sectioning (20 µm) in a cryostat (Bright Instrument Company Ltd). Three sections were taken every 400 µm for the entire length of the rat brain and thaw mounted onto poly-L-lysine coated slides. Sections were dried at room temperature and apposed to X-ray film (Kodak Biomax MR-1) for approximately 2 weeks. The resultant autoradiograms were analysed using computer-based densitometry (MCID, Imaging Research, Canada). Relative optical density (ROD) measurements were obtained from 14 ROIs defined with reference to a rat brain atlas. For each brain region examined, bilateral readings were obtained in triplicate and the average reading determined. ROD values in the cerebellum were used as a measure of non-specific binding. Specific binding was calculated as ROD in ROI/ROD in cerebellum.
# [2] = In vivo microSPECT imaging of brain uptake; set-up: species or system rat
# Description: as §1
# MicroSPECT imaging was performed in order to image the uptake of [^125I]WYE-230949 in the brain over time. SPECT scanning was performed using a MollyQ 50 microSPECT scanner (Neurophysics Corp., Shirley, MA, U.S.A.). Rats were anaesthetised for the duration of scan (2–3% isoflurane in 70/30% N2O/O2) and physiological parameters were maintained as described previously. The scanning protocol was designed to ensure that a forebrain slice encompassing structures dense in H3 bindings sites including cortex, striatum, hippocampus and thalamus was captured; the first slice being 14.4 mm caudal to the eyes, approximately at the level of the caudate nucleus. Scanning was commenced 12 min prior to intravenous injection of [^125I]WYE-230949 via the tail vein. Ten sequential coronal slices (400 µm/slice) were collected over a total scanning distance of 4 mm with a scanning time of 12 min per repetition. […] The mean intensity of the ROI in each slice of the SPECT images was measured by plotting a z-axis profile. […] Finally these values were expressed as % of injected dose per ml of tissue and plotted against time.
smiles,measurement,setting,value
O=C(c1ccc(Cn2cnc3cccc([125I])c32)cc1)N1CC[C@H](N2CCCC2)C1 [[^125I]WYE-230949],logD7.4,"[1]; octanol/phosphate buffer pH 7.4, n = 3",1.64±0.04
same,logP,"[1]; octanol/water, n = 3",1.59±0.04
same,Target to cerebellum ratio,"histamine H3 receptor; Amygdala, 30 min, anaesthetised",1.10±0.02
same,Target to cerebellum ratio,"histamine H3 receptor; Amygdala, 30 min, conscious",1.12±0.04
same,Target to cerebellum ratio,"histamine H3 receptor; Amygdala, 120 min, anaesthetised",1.16±0.03
same,Target to cerebellum ratio,"histamine H3 receptor; Amygdala, 120 min, conscious",1.26±0.03
same,Target to cerebellum ratio,"histamine H3 receptor; Anterior Cortex, 30 min, anaesthetised",1.09±0.03
same,Target to cerebellum ratio,"histamine H3 receptor; Anterior Cortex, 30 min, conscious",1.15 ± 0.02
same,Target to cerebellum ratio,"histamine H3 receptor; Anterior Cortex, 120 min, anaesthetised",1.10±0.02
same,Target to cerebellum ratio,"histamine H3 receptor; Anterior Cortex, 120 min, conscious",1.16±0.02
same,Target to cerebellum ratio,"histamine H3 receptor; Caudate Putamen, 30 min, anaesthetised",1.13±0.03
same,Target to cerebellum ratio,"histamine H3 receptor; Caudate Putamen, 30 min, conscious",1.17±0.03
same,Target to cerebellum ratio,"histamine H3 receptor; Caudate Putamen, 120 min, anaesthetised",1.20±0.04
same,Target to cerebellum ratio,"histamine H3 receptor; Caudate Putamen, 120 min, conscious",1.32±0.04
same,Target to cerebellum ratio,"histamine H3 receptor; Choroid Plexus, 30 min, anaesthetised",1.73±0.06
same,Target to cerebellum ratio,"histamine H3 receptor; Choroid Plexus, 30 min, conscious",2.68±0.04
same,Target to cerebellum ratio,"histamine H3 receptor; Choroid Plexus, 120 min, anaesthetised",1.79±0.10
same,Target to cerebellum ratio,"histamine H3 receptor; Choroid Plexus, 120 min, conscious",2.66±0.11
same,Target to cerebellum ratio,"histamine H3 receptor; Hippocampus, 30 min, anaesthetised",1.08±0.03
same,Target to cerebellum ratio,"histamine H3 receptor; Hippocampus, 30 min, conscious",1.06±0.02
same,Target to cerebellum ratio,"histamine H3 receptor; Hippocampus, 120 min, anaesthetised",1.08±0.01
same,Target to cerebellum ratio,"histamine H3 receptor; Hippocampus, 120 min, conscious",1.10±0.02
same,Target to cerebellum ratio,"histamine H3 receptor; Hypothalamus, 30 min, anaesthetised",1.16±0.03
same,Target to cerebellum ratio,"histamine H3 receptor; Hypothalamus, 30 min, conscious",1.13±0.03
same,Target to cerebellum ratio,"histamine H3 receptor; Hypothalamus, 120 min, anaesthetised",1.18±0.03
same,Target to cerebellum ratio,"histamine H3 receptor; Hypothalamus, 120 min, conscious",1.18±0.02
same,Target to cerebellum ratio,"histamine H3 receptor; Medial Cortex, 30 min, anaesthetised",1.10±0.03
same,Target to cerebellum ratio,"histamine H3 receptor; Medial Cortex, 30 min, conscious",1.22±0.03
same,Target to cerebellum ratio,"histamine H3 receptor; Medial Cortex, 120 min, anaesthetised",1.12±0.02
same,Target to cerebellum ratio,"histamine H3 receptor; Medial Cortex, 120 min, conscious",1.21±0.02
same,Target to cerebellum ratio,"histamine H3 receptor; Nucleus Accumbens (Core), 30 min, anaesthetised",1.12±0.03
same,Target to cerebellum ratio,"histamine H3 receptor; Nucleus Accumbens (Core), 30 min, conscious",1.15±0.03
same,Target to cerebellum ratio,"histamine H3 receptor; Nucleus Accumbens (Core), 120 min, anaesthetised",1.24±0.04
same,Target to cerebellum ratio,"histamine H3 receptor; Nucleus Accumbens (Core), 120 min, conscious",1.36±0.03
same,Target to cerebellum ratio,"histamine H3 receptor; Nucleus Accumbens (Shell), 30 min, anaesthetised",1.12±0.02
same,Target to cerebellum ratio,"histamine H3 receptor; Nucleus Accumbens (Shell), 30 min, conscious",1.17±0.06
same,Target to cerebellum ratio,"histamine H3 receptor; Nucleus Accumbens (Shell), 120 min, anaesthetised",1.24±0.04
same,Target to cerebellum ratio,"histamine H3 receptor; Nucleus Accumbens (Shell), 120 min, conscious",1.33±0.05
same,Target to cerebellum ratio,"histamine H3 receptor; Posterior Cortex, 30 min, anaesthetised",1.08±0.03
same,Target to cerebellum ratio,"histamine H3 receptor; Posterior Cortex, 30 min, conscious",1.18±0.03
same,Target to cerebellum ratio,"histamine H3 receptor; Posterior Cortex, 120 min, anaesthetised",1.13±0.03
same,Target to cerebellum ratio,"histamine H3 receptor; Posterior Cortex, 120 min, conscious",1.26±0.02
same,Target to cerebellum ratio,"histamine H3 receptor; Substantia Nigra, 30 min, anaesthetised",1.19±0.03
same,Target to cerebellum ratio,"histamine H3 receptor; Substantia Nigra, 30 min, conscious",1.10±0.02
same,Target to cerebellum ratio,"histamine H3 receptor; Substantia Nigra, 120 min, anaesthetised",1.26±0.04
same,Target to cerebellum ratio,"histamine H3 receptor; Substantia Nigra, 120 min, conscious",1.26±0.03
same,Target to cerebellum ratio,"histamine H3 receptor; Thalamus, 30 min, anaesthetised",1.10±0.03
same,Target to cerebellum ratio,"histamine H3 receptor; Thalamus, 30 min, conscious",1.11±0.02
same,Target to cerebellum ratio,"histamine H3 receptor; Thalamus, 120 min, anaesthetised",1.09±0.02
same,Target to cerebellum ratio,"histamine H3 receptor; Thalamus, 120 min, conscious",1.08±0.02
same,ratio of specific to non-specific binding,"histamine H3 receptor; all brain ROIs, conscious and anaesthetised rats",less than 1.4
same,maximum brain uptake (microSPECT),"[2]; first 12 min following i.v. injection, anaesthetised rats, n = 5",0.14±0.01 % ID/ml
same,"maximum brain uptake (SPECT), as restated in discussion","[2]; first 12 min post injection, rats",0.14 %ID/g
same,half-life in rat brain,[2]; microSPECT time activity curve,45.4 min
